# Measured values reported in ChEMBL document CHEMBL4376834, “Discovery of 4H-Chromen-4-one Derivatives as a New Class of Selective Rho Kinase (ROCK) Inhibitors, which Showed Potent Activity in ex Vivo Diabetic Retinopathy Models” (J Med Chem, 2019).
# Columns and labels:
# [1] = target: Eukaryotic translation initiation factor 2-alpha kinase 3 (Homo sapiens, UniProt Q9NZJ5); test: Inhibition of human PEK (536 to end residues) using RSRSRSRSRSRSRSR as substrate measured after 40 mins in presence of [gamma33P]ATP by radiometric scintillation counting analysis
# [2] = target: Hepatocyte growth factor receptor (Homo sapiens, UniProt P08581, D1228N); test: Inhibition of recombinant human MET A1209G/V1290L/D1246N triple mutant (974 to end residues) using KKKGQEEEYVFIE as substrate incubated for 40 mins in presence of [gamma-33ATP by radiometric scintillation counting analysis
# [3] = target: Serine/threonine-protein kinase D1 (Homo sapiens, UniProt Q15139); test: Inhibition of recombinant full-length human PKCmu R135A mutant using KKLNRTLSVA as substrate incubated for 40 mins in presence of [gamma33P]ATP by radiometric scintillation counting analysis
# Sequence of Serine/threonine-protein kinase D1 (Q15139 whole entry): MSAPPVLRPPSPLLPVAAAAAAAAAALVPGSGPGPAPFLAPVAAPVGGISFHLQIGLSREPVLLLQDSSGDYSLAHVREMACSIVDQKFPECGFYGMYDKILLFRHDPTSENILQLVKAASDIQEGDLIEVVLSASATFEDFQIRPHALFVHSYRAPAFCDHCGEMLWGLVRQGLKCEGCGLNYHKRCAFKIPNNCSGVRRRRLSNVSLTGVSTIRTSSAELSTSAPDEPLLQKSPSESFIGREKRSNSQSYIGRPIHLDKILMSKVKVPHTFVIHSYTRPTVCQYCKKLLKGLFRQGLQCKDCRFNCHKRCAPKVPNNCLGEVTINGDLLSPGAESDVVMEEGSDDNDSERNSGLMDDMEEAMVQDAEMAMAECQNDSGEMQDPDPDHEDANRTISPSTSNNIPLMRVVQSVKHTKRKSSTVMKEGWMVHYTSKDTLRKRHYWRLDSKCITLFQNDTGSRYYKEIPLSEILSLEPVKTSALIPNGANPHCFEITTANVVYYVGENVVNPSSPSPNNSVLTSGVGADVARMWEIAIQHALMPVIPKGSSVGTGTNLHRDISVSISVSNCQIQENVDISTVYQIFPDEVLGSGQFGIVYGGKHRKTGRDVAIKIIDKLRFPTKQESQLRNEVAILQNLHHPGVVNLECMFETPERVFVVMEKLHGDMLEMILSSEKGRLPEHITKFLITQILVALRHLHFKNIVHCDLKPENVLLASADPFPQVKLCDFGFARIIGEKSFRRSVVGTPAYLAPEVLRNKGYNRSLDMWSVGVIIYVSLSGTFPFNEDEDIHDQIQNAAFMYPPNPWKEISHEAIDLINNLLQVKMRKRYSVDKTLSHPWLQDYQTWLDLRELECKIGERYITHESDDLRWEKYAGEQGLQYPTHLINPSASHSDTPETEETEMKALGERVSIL
# [4] = target: Serine/threonine-protein kinase pim-2 (Homo sapiens, UniProt Q9P1W9); test: Inhibition of recombinant human Pim2 (2 to end residues) using RSRHSSYPAGT as substrate incubated for 40 mins in presence of [gamma33P]ATP by radiometric scintillation counting analysis
# [5] = target: cAMP-dependent protein kinase catalytic subunit beta (Homo sapiens, UniProt P22694); test: Inhibition of recombinant full length human PKAcbeta using KEAKEKRQEQIAKR as substrate incubated for 40 mins in presence of [gamma33P]ATP by radiometric scintillation counting analysis
# [6] = n-Octanol-water partition coefficient, logD of compound at 1 mg measured after 48 hrs under shaking condition by LC-MS analysis; type: physicochemical
# SRSF protein kinase 1 = SRSF protein kinase 1 (Homo sapiens, UniProt Q96SB4); test: Inhibition of recombinant human SRPK1 (2 to end residues) using RSRSRSRSRSRSRSR as substrate incubated for 40 mins in presence of [gamma33P]ATP by radiometric scintillation counting analysis
# Sequence of SRSF protein kinase 1 (Q96SB4 whole entry, the tested form may be a part): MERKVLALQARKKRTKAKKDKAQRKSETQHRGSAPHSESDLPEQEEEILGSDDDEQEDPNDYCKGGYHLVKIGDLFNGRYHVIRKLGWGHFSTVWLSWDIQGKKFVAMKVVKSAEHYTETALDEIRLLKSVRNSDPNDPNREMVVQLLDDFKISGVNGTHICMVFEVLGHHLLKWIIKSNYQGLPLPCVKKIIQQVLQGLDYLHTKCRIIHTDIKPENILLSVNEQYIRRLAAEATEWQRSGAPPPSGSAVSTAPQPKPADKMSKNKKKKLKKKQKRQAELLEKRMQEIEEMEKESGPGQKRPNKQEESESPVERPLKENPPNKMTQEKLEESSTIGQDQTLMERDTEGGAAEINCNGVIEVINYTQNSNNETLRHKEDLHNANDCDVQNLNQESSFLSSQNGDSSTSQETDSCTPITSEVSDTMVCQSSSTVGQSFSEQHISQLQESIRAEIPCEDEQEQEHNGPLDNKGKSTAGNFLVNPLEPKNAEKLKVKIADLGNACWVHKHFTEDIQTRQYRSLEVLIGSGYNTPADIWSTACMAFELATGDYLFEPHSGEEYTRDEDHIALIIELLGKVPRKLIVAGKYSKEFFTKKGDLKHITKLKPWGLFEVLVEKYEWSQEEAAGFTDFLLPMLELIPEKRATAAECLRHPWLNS
# [7] = target: Serine/threonine-protein kinase TAO1 (Homo sapiens, UniProt Q7L7X3); test: Inhibition of recombinant human TAO1 (1 to 327 residues) using myelin basic protein as substrate incubated for 40 mins in presence of [gamma33P]ATP by radiometric scintillation counting analysis
# [8] = target: Serine/threonine-protein kinase TBK1 (Homo sapiens, UniProt Q9UHD2); test: Inhibition of recombinant full length human TBK1 using KRRRALS(p)VAS as substrate incubated for 40 mins in presence of [gamma33P]ATP by radiometric scintillation counting analysis
# [9] = target: Inhibitor of nuclear factor kappa-B kinase subunit beta (Homo sapiens, UniProt O14920); test: Inhibition of recombinant full length human IKKbeta using peptide substrate after 40 mins by [gamma-33ATP] by radiometric scintillation counting analysis
# [10] = target: Hepatocyte growth factor receptor (Homo sapiens, UniProt P08581, A1209G/V1290L); test: Inhibition of recombinant human MET A1209G/V1290L double mutant (974 to end residues) using KKKGQEEEYVFIE as substrate incubated for 40 mins in presence of [gamma-33ATP by radiometric scintillation counting analysis
# [11] = target: Interferon-induced, double-stranded RNA-activated protein kinase (Homo sapiens, UniProt P19525); test: Inhibition of recombinant human PKR (252 to end residues) using RSRSRSRSRSRSRS as substrate incubated for 40 mins in presence of [gamma33P]ATP by radiometric scintillation counting analysis
# [12] = target: Mast/stem cell growth factor receptor Kit (Homo sapiens, UniProt P10721, V654A); test: Inhibition of recombinant human C-Kit V654A mutant (544 to end residues) using poly(Glu, Tyr) 4:1 as substrate incubated 40 mins in presence of [gamma-33ATP] by radiometric scintillation counting analysis
# [13] = Inhibition of recombinant full-length human ATR/ATRIP M211T mutant using GST-cMyc-p53 as substrate incubated for 40 mins by fluorescence assay
# Aurora kinase C = Aurora kinase C (Homo sapiens, UniProt Q9UQB9); test: Inhibition of human recombinant AURORA-C (35 to end residues) using AKRRRLSSLRA as substrate incubated for 40 mins in presence of [gamma-33ATP] by radiometric scintillation counting analysis
# [14] = target: Serine/threonine-protein kinase 33 (Homo sapiens, UniProt Q9BYT3); test: Inhibition of recombinant full-length human STK33 using myelin basic protein as substrate incubated for 40 mins in presence of [gamma33P]ATP by radiometric scintillation counting analysis
# [15] = target: Tyrosine-protein kinase ABL1 (Homo sapiens, UniProt P00519, M351T); test: Inhibition of human recombinant ABL1 M351T mutant (27 to end residues) using EAIYAAPFAKKK as substrate incubated for 40 mins in presence of [gamma-33P]ATP by scintillation counting based radiometry assay
# [16] = target: Inhibitor of nuclear factor kappa-B kinase subunit epsilon (Homo sapiens, UniProt Q14164); test: Inhibition of recombinant full length human IKKepsilon using casein as substrate after 40 mins by [gamma-33ATP] by radiometric scintillation counting analysis
# Sequence of Inhibitor of nuclear factor kappa-B kinase subunit epsilon (Q14164 whole entry): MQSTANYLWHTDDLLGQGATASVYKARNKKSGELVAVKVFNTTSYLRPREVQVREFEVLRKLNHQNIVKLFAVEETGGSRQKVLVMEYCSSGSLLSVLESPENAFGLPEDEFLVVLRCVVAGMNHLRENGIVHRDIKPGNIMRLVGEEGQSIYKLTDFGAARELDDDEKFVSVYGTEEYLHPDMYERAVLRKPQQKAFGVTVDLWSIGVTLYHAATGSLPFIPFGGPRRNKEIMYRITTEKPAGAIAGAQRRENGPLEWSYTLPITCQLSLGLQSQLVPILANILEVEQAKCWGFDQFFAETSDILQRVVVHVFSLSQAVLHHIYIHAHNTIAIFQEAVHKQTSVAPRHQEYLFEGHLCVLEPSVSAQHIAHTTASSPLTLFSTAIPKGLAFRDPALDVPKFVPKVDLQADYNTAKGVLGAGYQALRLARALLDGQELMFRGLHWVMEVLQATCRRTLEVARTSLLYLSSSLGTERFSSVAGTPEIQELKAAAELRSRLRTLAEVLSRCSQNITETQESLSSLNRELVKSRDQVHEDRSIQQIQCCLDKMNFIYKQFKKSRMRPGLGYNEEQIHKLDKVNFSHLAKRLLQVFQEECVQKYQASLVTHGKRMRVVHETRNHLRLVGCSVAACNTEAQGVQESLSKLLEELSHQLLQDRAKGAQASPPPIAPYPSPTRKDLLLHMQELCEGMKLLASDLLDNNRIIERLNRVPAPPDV
# [17] = target: Dual specificity tyrosine-phosphorylation-regulated kinase 2 (Homo sapiens, UniProt Q92630); test: Inhibition of recombinant full length human DYRK2 using casein as substrate after 40 mins in presence of [gamma-33ATP] by radiometric scintillation counting analysis
# Sequence of Dual specificity tyrosine-phosphorylation-regulated kinase 2 (Q92630 whole entry, the tested form may be a part): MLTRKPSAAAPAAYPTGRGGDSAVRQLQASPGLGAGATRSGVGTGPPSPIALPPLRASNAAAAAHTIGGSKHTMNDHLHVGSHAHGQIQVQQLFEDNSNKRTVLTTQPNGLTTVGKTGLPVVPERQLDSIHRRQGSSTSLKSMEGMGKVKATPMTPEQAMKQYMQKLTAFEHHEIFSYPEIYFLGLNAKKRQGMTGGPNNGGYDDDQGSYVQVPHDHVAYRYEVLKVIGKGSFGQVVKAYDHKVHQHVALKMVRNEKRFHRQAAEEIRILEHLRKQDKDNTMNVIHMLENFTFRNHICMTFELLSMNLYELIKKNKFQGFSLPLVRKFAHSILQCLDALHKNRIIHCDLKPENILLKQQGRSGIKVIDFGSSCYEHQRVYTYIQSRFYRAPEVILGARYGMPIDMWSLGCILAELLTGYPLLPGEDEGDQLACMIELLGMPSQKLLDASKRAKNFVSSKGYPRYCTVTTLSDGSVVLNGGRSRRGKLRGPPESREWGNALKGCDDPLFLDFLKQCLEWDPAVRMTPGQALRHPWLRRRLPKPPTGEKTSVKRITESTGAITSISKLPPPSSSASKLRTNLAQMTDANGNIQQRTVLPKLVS
# [18] = target: Tyrosine-protein kinase ITK/TSK (Homo sapiens, UniProt Q08881); test: Inhibition of human recombinant Itk (352 to 617 residues) using myelin basic protein as substrate after 40 mins by [gamma-33ATP] by radiometric scintillation counting analysis
# Sequence of Tyrosine-protein kinase ITK/TSK (Q08881 whole entry, the tested form may be a part): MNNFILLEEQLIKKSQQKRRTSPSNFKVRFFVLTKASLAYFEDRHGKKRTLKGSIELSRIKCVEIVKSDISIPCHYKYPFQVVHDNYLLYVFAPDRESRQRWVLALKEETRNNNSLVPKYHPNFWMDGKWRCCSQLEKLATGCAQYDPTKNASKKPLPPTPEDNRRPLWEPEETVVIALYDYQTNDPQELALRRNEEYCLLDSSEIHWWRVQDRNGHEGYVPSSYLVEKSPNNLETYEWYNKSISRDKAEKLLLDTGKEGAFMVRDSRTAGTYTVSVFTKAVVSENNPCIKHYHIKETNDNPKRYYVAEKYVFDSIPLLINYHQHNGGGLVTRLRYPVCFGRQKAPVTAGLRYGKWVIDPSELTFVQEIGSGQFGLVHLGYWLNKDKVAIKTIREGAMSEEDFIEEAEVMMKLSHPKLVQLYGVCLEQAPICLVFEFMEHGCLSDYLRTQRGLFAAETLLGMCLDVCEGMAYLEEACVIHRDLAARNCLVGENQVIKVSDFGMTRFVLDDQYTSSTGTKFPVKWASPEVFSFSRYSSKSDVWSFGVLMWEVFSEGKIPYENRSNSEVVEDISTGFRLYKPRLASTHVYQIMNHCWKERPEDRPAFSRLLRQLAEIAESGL
# [19] = target: Serine/threonine-protein kinase TAO2 (Homo sapiens, UniProt Q9UL54); test: Inhibition of recombinant human TAO2 (1 to 320 residues) using myelin basic protein as substrate incubated for 40 mins in presence of [gamma33P]ATP by radiometric scintillation counting analysis
# [20] = target: Mitogen-activated protein kinase 10 (Homo sapiens, UniProt P53779); test: Inhibition of recombinant full length human JNK3 using peptide substrate after 40 mins by [gamma-33ATP] by radiometric scintillation counting analysis
# Sequence of Mitogen-activated protein kinase 10 (P53779 whole entry): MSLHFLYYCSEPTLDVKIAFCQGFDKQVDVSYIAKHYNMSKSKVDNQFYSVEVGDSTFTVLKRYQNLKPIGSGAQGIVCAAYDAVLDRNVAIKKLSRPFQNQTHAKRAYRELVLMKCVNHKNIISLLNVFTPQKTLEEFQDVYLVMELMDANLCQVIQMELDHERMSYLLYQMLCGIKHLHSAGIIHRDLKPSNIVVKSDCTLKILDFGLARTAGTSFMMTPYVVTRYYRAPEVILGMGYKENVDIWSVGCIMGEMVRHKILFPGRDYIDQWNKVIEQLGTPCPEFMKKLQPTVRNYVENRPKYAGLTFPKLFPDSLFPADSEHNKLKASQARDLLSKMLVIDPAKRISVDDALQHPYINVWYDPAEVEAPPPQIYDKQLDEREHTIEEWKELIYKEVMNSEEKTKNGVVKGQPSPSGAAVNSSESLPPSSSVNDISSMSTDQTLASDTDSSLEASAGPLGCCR
# [21] = Protein binding in monkey plasma at 1 uM incubated incubated for 5 hrs under shaking conditions by LC-MS analysis; type: ADME, cell-free, Macaca mulatta; details: rhesus monkey, read-out: PPB (converted)
# [22] = target: Platelet-derived growth factor receptor alpha (Homo sapiens, UniProt P16234, V561D); test: Inhibition of human PDGFRalpha V561D mutant (550 to end residues) using GGMEDIYFEFMGG as substrate measured after 40 mins in presence of [gamma33P]ATP by radiometric scintillation counting analysis
# Sequence of Platelet-derived growth factor receptor alpha (P16234 24-1089 V561D limits assumed): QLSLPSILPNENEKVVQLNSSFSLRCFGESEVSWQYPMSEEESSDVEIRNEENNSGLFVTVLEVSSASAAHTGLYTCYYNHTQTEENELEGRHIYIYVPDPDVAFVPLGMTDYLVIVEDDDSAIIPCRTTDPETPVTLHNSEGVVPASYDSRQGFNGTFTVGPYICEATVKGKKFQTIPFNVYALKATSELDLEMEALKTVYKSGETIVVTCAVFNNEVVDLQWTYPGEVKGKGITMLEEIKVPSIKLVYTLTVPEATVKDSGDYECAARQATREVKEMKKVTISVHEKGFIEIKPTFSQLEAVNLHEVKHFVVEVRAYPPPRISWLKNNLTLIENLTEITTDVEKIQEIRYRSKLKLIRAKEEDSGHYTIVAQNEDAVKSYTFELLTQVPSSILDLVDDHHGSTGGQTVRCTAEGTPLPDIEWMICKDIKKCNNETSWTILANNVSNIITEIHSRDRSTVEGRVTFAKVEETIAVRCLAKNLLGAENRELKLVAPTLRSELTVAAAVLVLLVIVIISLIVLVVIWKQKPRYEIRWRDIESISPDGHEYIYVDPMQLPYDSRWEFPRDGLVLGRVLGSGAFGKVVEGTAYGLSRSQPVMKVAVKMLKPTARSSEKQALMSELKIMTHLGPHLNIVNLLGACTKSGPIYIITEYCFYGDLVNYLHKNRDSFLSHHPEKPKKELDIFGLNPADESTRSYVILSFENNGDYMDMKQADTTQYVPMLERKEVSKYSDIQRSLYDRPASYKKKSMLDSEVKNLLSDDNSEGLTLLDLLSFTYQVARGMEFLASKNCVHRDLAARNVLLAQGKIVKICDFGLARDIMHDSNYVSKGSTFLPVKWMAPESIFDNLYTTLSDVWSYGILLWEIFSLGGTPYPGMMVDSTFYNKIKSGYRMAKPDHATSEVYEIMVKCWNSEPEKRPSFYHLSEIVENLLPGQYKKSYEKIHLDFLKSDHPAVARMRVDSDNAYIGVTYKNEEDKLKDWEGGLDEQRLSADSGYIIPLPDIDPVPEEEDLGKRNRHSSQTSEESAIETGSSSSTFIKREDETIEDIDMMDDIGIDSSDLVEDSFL
# [23] = target: Serine/threonine-protein kinase PLK2 (Homo sapiens, UniProt Q9NYY3); test: Inhibition of recombinant human SNK (65 to 409 residues) using casein as substrate incubated for 40 mins in presence of [gamma33P]ATP by radiometric scintillation counting analysis
# [24] = target: Serine/threonine-protein kinase 4 (Homo sapiens, UniProt Q13043); test: Inhibition of recombinant full-length human MST1 using KKSRGDYMTMQIG as substrate measured after 40 mins in presence of [gamma33P]ATP by radiometric scintillation counting analysis
structure (smiles),measurement,setting,value
CN(C)c1ccc(C(=O)Nc2cccc(NC(=O)COc3ccc4c(=O)ccoc4c3)c2)cc1,IC50,[1],> 10 µM
same,IC50,[2],> 10 µM
same,IC50,[3],> 10 µM
same,IC50,[4],> 10 µM
same,IC50,[5],> 10 µM
same,logD at 48 h,[6],2.65
same,IC50,SRSF protein kinase 1,> 10 µM
same,IC50,[7],> 10 µM
same,IC50,[8],> 10 µM
same,IC50,[9],> 10 µM
same,IC50,[10],> 10 µM
same,IC50,[11],> 10 µM
same,IC50,[12],> 10 µM
same,IC50,[13],> 10 µM
same,IC50,Aurora kinase C,> 10 µM
same,IC50,[14],> 10 µM
same,IC50,[15],> 10 µM
same,IC50,[16],> 10 µM
same,IC50,[17],> 10 µM
same,IC50,[18],> 10 µM
same,IC50,[19],> 10 µM
same,IC50,[20],> 10 µM
same,"fraction unbound at 5 h, 1 µM",[21],0.002
same,IC50,[22],> 10 µM
same,IC50,[23],> 10 µM
same,IC50,[24],> 10 µM
